From patent publication US20110200549A1, “Organic Compounds Suitable For Modulating Fragrance Compositions” (priority 2008, published 2011)

Experiments:
[1] = target: T1, CYP2A13 (Homo sapiens, UniProt Q16696); assay: CYP2A13 inhibition, coumarin 7-hydroxylation (Umbelliferone fluorescence) in microsomes; assay type: biochemical; settings: recombinant CYP2A13 + P450 reductase microsomes, coumarin 0.006 mM, 60 min at 37° C.; read-out: CYP2A13 inhibitor activity IC50
T1 construct: made in house; host or cells: Sf9 insect cells, recombinant baculovirus
T1 sequence (Q16696 1-494): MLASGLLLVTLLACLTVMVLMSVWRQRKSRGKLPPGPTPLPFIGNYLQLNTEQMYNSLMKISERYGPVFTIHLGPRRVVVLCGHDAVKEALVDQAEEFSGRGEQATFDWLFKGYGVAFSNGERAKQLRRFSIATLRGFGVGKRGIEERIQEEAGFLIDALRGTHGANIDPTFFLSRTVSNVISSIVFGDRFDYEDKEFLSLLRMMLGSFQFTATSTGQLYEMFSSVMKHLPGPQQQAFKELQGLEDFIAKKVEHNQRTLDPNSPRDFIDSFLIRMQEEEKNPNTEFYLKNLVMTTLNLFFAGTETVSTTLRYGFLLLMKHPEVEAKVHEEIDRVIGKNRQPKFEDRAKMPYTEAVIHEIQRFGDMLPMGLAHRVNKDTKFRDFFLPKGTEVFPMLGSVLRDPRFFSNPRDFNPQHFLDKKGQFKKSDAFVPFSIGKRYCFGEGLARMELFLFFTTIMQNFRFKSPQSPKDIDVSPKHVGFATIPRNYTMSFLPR
Procedure: Compounds that inhibit the activity of CYP2A13 are identified by using a standard reaction established for the enzyme. A known substrate is coumarin, and the product of the enzymatic reaction is 7-hydroxy-coumarin (Umbelliferone) which is strongly fluorescent. When a compound is added to the standard reaction and the formation of Umbelliferone is decreased, the compound is identified as an inhibitor, which can also be a competitive substrate of the enzyme. The compound is used at various concentrations and the concentration-dependent decrease in Umbelliferone formation allows to determine the concentration where the activity of the enzyme is reduced to the 50% level (IC50 value).
A test compound (details see Table 1) was incubated with CYP2A13 in the presence of a cytochrome P450 reductase. CYP2A13 and P450 reductase were employed in form of microsomes. CYP2A13 was produced in Sf9 cells using a recombinant baculovirus, under conditions known to the person skilled in the art, for example, as described in WO 2006/007751. P450 reductase is commercially available (BD Biosciences Gentest, USA). Preferably, the two enzymes are coexpressed in the same insect cells and microsomes prepared which contain both enzymes. The art of coexpression of two enzymes is known, and the coexpression CYP2A13 and P450 reductase is described in WO 2006/007751. […] An MOI of 4 for recombinant CYP2A13 baculovirus combined with an MOI of 3.5 for recombinant P450 reductase baculovirus routinely produced microsomes with considerable activity.
Microsomes were used which contained 7 pmoles CYP2A13. Tris buffer (1 M, pH 7.6) and water were added to give a buffer concentration of 0.1M. The test compound was prepared as a 50 mM stock solution in acetonitrile. The concentration of the standard substrate coumarin was 0.006 mM. Several samples of the test compound were prepared at various concentrations to give different final concentrations in the reaction: 0, 0.005, 0.01, 0.02, 0.05, 0.1 and 0.2 mM. The mixture was incubated for 10 min at 37° C. prior to the initiation of the enzymatic reaction by the addition of 0.005 ml of a solution of 50 mM NADPH in water. The final total volume was 0.2 ml, which is suitable for microtiter plate measurements. The samples were incubated for 60 min at 37° C. After 60 min, the enzymatic reaction was stopped by the addition of 0.02 ml cold 50% trichloroacetic acid (TCA) and incubated at 4° C. for 15 min. 0.005 ml of a solution of 50 mM NADPH in water was added to the control reaction which corresponds to the reaction without test compound and without NADPH, and as a consequence, no Umbelliferone was formed. Denatured proteins and other insoluble parts were separated by centrifugation (10 min, 560×g, room-temperature).
The samples were analysed spectrofluorometrically which allows to detect the formation of Umbelliferone as the enzymatic product of coumarin at an excitation wavelength of 340 nm and an emission wavelength of 480 nm.

[2] = target: T2, CYP2B6 (Homo sapiens, UniProt P20813); assay: CYP2B6 inhibition, 7-ethoxy-4-trifluoromethyl-coumarin fluorescence assay in microsomes; assay type: biochemical; settings: CYP2B6 + P450 reductase microsomes, 7-ethoxy-4-trifluoromethyl-coumarin 6 μM, 40 min at 37° C.; read-out: CYP2B6 inhibitor activity IC50
T2 construct: made in house; host or cells: Sf9 insect cells, recombinant baculoviruses, coexpressed with P450 reductase
T2 sequence (P20813 1-491): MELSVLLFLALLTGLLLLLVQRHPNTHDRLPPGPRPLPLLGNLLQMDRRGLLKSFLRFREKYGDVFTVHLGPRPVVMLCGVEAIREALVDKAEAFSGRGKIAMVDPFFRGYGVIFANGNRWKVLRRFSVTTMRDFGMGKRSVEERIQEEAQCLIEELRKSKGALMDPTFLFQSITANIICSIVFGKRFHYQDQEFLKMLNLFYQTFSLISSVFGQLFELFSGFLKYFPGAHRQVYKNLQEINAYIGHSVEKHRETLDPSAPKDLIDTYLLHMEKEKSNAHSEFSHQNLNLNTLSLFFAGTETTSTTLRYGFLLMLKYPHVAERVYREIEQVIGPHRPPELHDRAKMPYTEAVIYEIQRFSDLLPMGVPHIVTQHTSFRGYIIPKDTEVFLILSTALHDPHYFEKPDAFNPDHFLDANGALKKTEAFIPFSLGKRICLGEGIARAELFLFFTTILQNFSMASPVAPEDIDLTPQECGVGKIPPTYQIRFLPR
Procedure: Test compounds that inhibit the activity of CYP2B6 are identified by using the same principle as described in Example 42, first paragraph.
A test compound (details see Table 2) was incubated with CYP2B6 in the presence of a cytochrome P450 reductase. CYP2B6 and P450 reductase are produced using recombinant baculoviruses and co-expressing the two proteins in Sf9 insect cells as described in Example 42. Alternatively, microsomes containing CYP2B6 and the reductase are commercially available (BD Biosciences Gentest, USA). Microsomes were used which contained 1.5 pmoles CYP2B6. Potassium phosphate buffer final concentration was 100 mM, (1M stock, pH 7.4). The test compound was prepared as a 50 mM stock solution in acetonitrile. The concentration of the standard substrate 7-ethoxy-4-trifluoromethyl-coumarin was 6 μM. Several samples of the test compound were prepared at various concentrations to give different final concentrations in the reaction: 0, 0.005, 0.01, 0.02, 0.05, 0.1 and 0.2 mM. […] The final total volume was 0.2 ml, which is suitable for microtiter plate measurements. The samples were incubated for 40 min at 37° C. After 40 min, the enzymatic reaction was stopped by the addition of […] 0.5M Tris-base/acetonitrile (18:72). 0.005 ml of a solution of 50 mM NADPH in water was added to the control reaction which corresponds to the reaction with test compound and enzyme but without NADPH, and as a consequence, no 4-trifluoromethyl-umbelliferone was formed. Denatured proteins and other insoluble parts were separated by centrifugation (5 min, 1800 rpm, at 10° C.).
The samples were analysed spectrofluorometrically which allows to detect the formation of 4-trifluoromethyl-umbelliferone as the enzymatic product at an excitation wavelength of 410 nm and an emission wavelength of 510 nm.

[3] = Sensory panel study with olfactometer (Virtual Aroma Synthesizer): modulation of a fragrance accord by the inhibitor; set-up: species or system human; settings: 10-ingredient fragrance accord with vs without inhibitor, random order, panelists
Procedure: For each panelist, the inhibitor was tested by itself and confirmed that it was rated as being odorless at the given concentration.
Sensory studies are performed using an olfactometer, such as the Virtual Aroma Synthesizer (VAS) which is described in Chimia (2001) 55:401-405. The instrument allows to combine saturated headspace of different samples from different containers at various dilutions in order to determine the effect on the odor of the mixture produced in headspace. For the particular example, in one container the fragrance accord (1 gram) was adsorbed on beads (4 grams) and in another container the inhibitor N-(cyclopropylmethyl)-N-pentylacetamide was adsorbed on beads (4 grams).
Panelists were selected having different levels of experience and expertise in smelling, rating, describing and evaluating odorants, accords and perfumes. Panelists smelled the accord with or without the inhibitor at random order, not knowing which one was presented. Before and after the session, it was confirmed that the inhibitor alone was odorless.

IC50 [1] [µM]	IC50 [2] [µM]	SMILES	Effect on the odor of the fragrance accord attributed to the presence of the inhibitor [3]
3		CCCCC/C(=C\c1ccccc1)C(=O)N(C)C [Ex. 39, (E)-2-benzylidene-N,N-dimethylheptanamide]	
0.8		CCCCC/C(=C\C1CC1)C(=O)NC [Ex. 38, (E)-2-(cyclopropylmethylene)-N-methylheptanamide]	
17		CCCCCN(Cc1ccncc1)C(=O)OC [Ex. 9, methyl pentyl(pyridin-4-ylmethyl)carbamate]	
0.5	87	CCCCCN(CC1CC1)C(C)=O [Ex. 10, N-(cyclopropylmethyl)-N-pentylacetamide]	intensifying or boosting the fruitiness of the accord
2		CCCCCN(CCc1ccncc1)C(=O)OC [Ex. 21, methyl pentyl(2-(pyridin-4-yl)ethyl)carbamate]	
1.5	11	CCCCCN(C(C)=O)C(=O)OC(C)(C)C [Ex. 34, tert-butyl acetyl(pentyl)carbamate]	
47		CCCCCN(CCc1c[nH]cn1)C(=O)OC [Ex. 28, methyl 2-(1H-imidazol-4-yl)ethyl(pentyl)carbamate]	
11		CCCCCN(Cc1ccncc1)C(C)=O [Ex. 8, N-pentyl-N-(pyridin-4-ylmethyl)acetamide]	
0.5		CCCCC/C(=C\c1ccccc1)C(=O)NC [Ex. 37, (E)-2-benzylidene-N-methylheptanamide]	
0.3	72	CCCCCN(Cc1ccccc1)C(C)=O [Ex. 1, N-benzyl-N-pentylacetamide]	
3	28	CCCCCN(CC1CC1)C(=O)OC [Ex. 11, methyl cyclopropylmethyl(pentyl)carbamate]	
24		CCCCCN(CCc1ccccn1)C(C)=O [Ex. 16, N-pentyl-N-(2-(pyridin-2-yl)ethyl)acetamide]	
9		CCCCC/C(=C\C1CC1)C(=O)N(C)C [Ex. 40, (E)-2-(cyclopropylmethylene)-N,N-dimethylheptanamide]	
41		CCCCCN(CCc1cccnc1)C(=O)OC [Ex. 19, methyl pentyl(2-(pyridin-3-yl)ethyl)carbamate]	
0.7	17	CCCCCN(C(C)=O)C(=O)C1CC1 [Ex. 33, N-acetyl-N-pentylcyclopropanecarboxamide]	
25		CCCCCN(CCc1cccnc1)C(C)=O [Ex. 18, N-pentyl-N-(2-(pyridin-3-yl)ethyl)acetamide]	
34	2.5	CCCCCN(CCc1c[nH]cn1)C(C)=O [Ex. 27, N-(2-(1H-imidazol-4-yl)ethyl)-N-pentylacetamide]	
52		CC(=O)N(CCc1ccccc1)Cc1ccccc1 [Ex. 35, N-benzyl-N-phenethylacetamide]	
1.6	20	CCCCCN(Cc1ccccc1)C(=O)OC [Ex. 29, methyl benzyl(pentyl)carbamate]	
1.3	49	CCCCCN(C=O)CC1CC1 [Ex. 36, N-(cyclopropylmethyl)-N-pentylformamide]	
0.5	46	CCCCCN(C(C)=O)c1ccccc1 [Ex. 2, N-pentyl-N-phenylacetamide]	
2	93	CCCCCN(CCc1ccccc1)C(C)=O [Ex. 3, N-pentyl-N-phenethylacetamide]	
20		CCCCCN(Cc1ccccn1)C(=O)OC [Ex. 23, methyl pentyl(pyridin-2-ylmethyl)carbamate]	
15		CCCCCN(Cc1cccnc1)C(C)=O [Ex. 4, N-pentyl-N-(pyridin-3-ylmethyl)acetamide]	
22		CCCCCN(Cc1cccnc1)C(=O)OC [Ex. 5, methyl pentyl(pyridin-3-ylmethyl)carbamate]	
10		CCCCCN(Cc1ccccn1)C(C)=O [Ex. 22, N-pentyl-N-(pyridin-2-ylmethyl)acetamide]	
44		CCCCCN(CCc1ccccn1)C(=O)OC [Ex. 17, methyl pentyl(2-(pyridin-2-yl)ethyl)carbamate]	
8		CCCCN(Cc1ccccc1)C(C)=O [Ex. 6, N-benzyl-N-butylacetamide]	
13	19	CCCCCN(CCc1ccncc1)C(C)=O [Ex. 20, N-pentyl-N-(2-(pyridin-4-yl)ethyl)acetamide]	
1.1		CCCCC/C(=C\C1CC1)C(N)=O [Ex. 41, (E)-2-(cyclopropylmethylene)heptanamide]	
